Experimental findings from PubChem BioAssay (NCI) are described below.

Molecules are shown by their SMILES. “And” between values parts separate entries of the source, which are not always exact repeats. Equal values may be shown once.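 Tested at 5 concentrations; 48 h exposure; 96-well plates; endpoints linearly interpolated, else capped at highest concentration. Abbreviation: GI50, concentration required for 50% inhibition of growth. At the TGI there is no net growth.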

Among the test systems are UACC-257 melanoma; EKVX NSCLC; MCF7 breast; UO-31 renal; NCI/ADR-RES ovarian; NCI-H460 lung; OVCAR-8 ovarian; SK-MEL-2 melanoma.
Holding throughout (assay): DTP human tumour cell line panel, 48 h

Usually GI50 stands for the concentration that inhibits growth by half. A word on the TGI: it is the concentration giving total growth inhibition. A higher TGI goes with less potent growth arrest. Consider `CCCCCCCCCNCCCCCCCCC`, for which the GI50 is 1.93 µM in the test with UACC-257 melanoma; 2.15 µM with EKVX NSCLC; 1.7 µM in the test on MCF7 breast; 1.62 µM in the test on UO-31 renal; 1.71 µM in the test on NCI/ADR-RES ovarian; 1.93 µM with NCI-H460 lung. For the same compound, the values for the GI50 in the test with OVCAR-8 ovarian and in the test with SK-MEL-2 melanoma were 2.19 µM and 1.8 µM, respectively. Moreover, the TGI in the test with UACC-257 melanoma is 3.61 µM; in the test with EKVX NSCLC, 5.95 µM; with MCF7 breast it was 3.3 µM; with UO-31 renal, 3.8 µM; with NCI/ADR-RES ovarian, 3.37 µM; in the test on NCI-H460 lung, 3.65 µM. The TGI was found to be 4.66 µM with OVCAR-8 ovarian and 3.41 µM with SK-MEL-2 melanoma.

For `CN(C)NC1=NS(=O)(=O)c2cc3c(cc2S1)N(N(C)C)C(=O)c1cc2c(cc1N(N(C)C)C3=O)SC(NN(C)C)=NS2(=O)=O`, the TGI with UACC-257 melanoma, in the test on EKVX NSCLC, in the test on MCF7 breast, in the test on UO-31 renal, in the test with NCI/ADR-RES ovarian and in the test on NCI-H460 lung was over 10 µM in each case. Also, the concentration for total growth inhibition (TGI) with OVCAR-8 ovarian and in the test on SK-MEL-2 melanoma was over 10 µM throughout.

For `Nc1ccc(C(=O)c2ccc(N)c(Br)c2)cc1Br`, the GI50 in the test on UACC-257 melanoma is 14.4 µM; in the test with EKVX NSCLC it was 0.536 µM; in the test on MCF7 breast, 0.428 µM; with UO-31 renal, 0.734 µM; with NCI/ADR-RES ovarian, 0.348 µM; with NCI-H460 lung, 0.346 µM. The GI50 with OVCAR-8 ovarian was 0.518 µM; with SK-MEL-2 melanoma, 0.435 µM. The TGI with UACC-257 melanoma is over 100 µM; in the test with EKVX NSCLC, over 100 µM; in the test with MCF7 breast, over 100 µM; in the test with UO-31 renal, 34 µM; with NCI/ADR-RES ovarian, over 46.2 µM; with NCI-H460 lung, 5.76 µM. Also, the TGI came to 46.1 µM in the test with OVCAR-8 ovarian and 3.99 µM in the test with SK-MEL-2 melanoma.

`CCOC(=O)CCCn1c(SC)nc2cc(-c3ccco3)[nH]c2c1=O`: the GI50 with UACC-257 melanoma was over 100 µM; in the test on EKVX NSCLC it was 65.9 µM; with MCF7 breast, over 100 µM; in the test on UO-31 renal, 72.6 µM; in the test on NCI/ADR-RES ovarian, 72.9 µM; in the test with NCI-H460 lung, over 100 µM. Also, the GI50 was 31.1 µM in the test with OVCAR-8 ovarian and 36.4 µM in the test on SK-MEL-2 melanoma. The TGI in the test on UACC-257 melanoma, in the test on EKVX NSCLC, with MCF7 breast, with UO-31 renal, with NCI/ADR-RES ovarian and with NCI-H460 lung was over 100 µM throughout. For the same compound, the TGI in the test on OVCAR-8 ovarian and with SK-MEL-2 melanoma was over 100 µM each time.

As to `O=C(NC1CC1)c1ccc(-c2nc3ccc4[nH]ncc4c3c3c2CCCC3)cc1`, the GI50 in the test with UACC-257 melanoma was 9.1 µM; in the test on EKVX NSCLC, 1.33 µM; with MCF7 breast it was 1.44 µM; with UO-31 renal, 1.84 µM; with NCI/ADR-RES ovarian it was 6.56 µM; with NCI-H460 lung, 2.05 µM. Also, the GI50 was 2.34 µM with OVCAR-8 ovarian and 1.76 µM with SK-MEL-2 melanoma. Besides, the TGI with UACC-257 melanoma was 34.7 µM; with EKVX NSCLC, 12.2 µM; in the test on MCF7 breast, 9.57 µM; in the test on UO-31 renal it was 13.5 µM; with NCI/ADR-RES ovarian it was over 50 µM; in the test with NCI-H460 lung, 12.2 µM. Besides, the results for the TGI in the test on OVCAR-8 ovarian and in the test on SK-MEL-2 melanoma were over 50 µM and 7.36 µM, respectively.

Take `c1ccc(C(=NNc2nc3ccccc3o2)c2ccccn2)nc1`: the GI50 in the test on UACC-257 melanoma was 0.163 µM; in the test on EKVX NSCLC it was 0.0387 µM; in the test on MCF7 breast it was 0.0289 µM; with UO-31 renal, 0.0427 µM; with NCI/ADR-RES ovarian, 0.0386 µM; in the test on NCI-H460 lung, 0.0575 µM and 0.163 µM. Also, the values for the GI50 in the test on OVCAR-8 ovarian and with SK-MEL-2 melanoma were 0.0389 µM and 0.465 µM, respectively. For the same compound, the TGI with UACC-257 melanoma is 0.633 µM; in the test on UO-31 renal, 1.18 µM and 3.03 µM; in the test with NCI-H460 lung, 5.22 µM and 1.5 µM; with SK-MEL-2 melanoma it was 28.8 µM and 27.1 µM.

With `Cc1ccccc1C(=O)C#Cc1cn(C2CC(O)C(CO)O2)c(=O)[nH]c1=O` (centres undefined), the TGI in the test on UACC-257 melanoma, with EKVX NSCLC, in the test on MCF7 breast, in the test with UO-31 renal, in the test on NCI/ADR-RES ovarian and in the test with NCI-H460 lung was over 100 µM in each case. Further, the TGI in the test with OVCAR-8 ovarian and with SK-MEL-2 melanoma was over 100 µM in each case.

For `COc1ccc(CNc2nc3cc(N)cc(N)c3nc2-c2ccccc2)cc1OC`, the GI50 in the test with UACC-257 melanoma was 14.7 µM; in the test with EKVX NSCLC it was 13 µM; with MCF7 breast, 20.9 µM; in the test on UO-31 renal, 15 µM; in the test with NCI/ADR-RES ovarian it was 17.7 µM; in the test on NCI-H460 lung, 27.1 µM. Besides, the GI50 in the test on OVCAR-8 ovarian was 10.5 µM; with SK-MEL-2 melanoma it was 13.9 µM. Further, the total growth inhibition concentration (TGI) with UACC-257 melanoma is 29.2 µM; with EKVX NSCLC, 44.6 µM; in the test with MCF7 breast it was over 63.2 µM; with UO-31 renal, 40.7 µM; in the test on NCI/ADR-RES ovarian it was 58.2 µM; with NCI-H460 lung it was over 95.3 µM. The figures for the TGI with OVCAR-8 ovarian and in the test on SK-MEL-2 melanoma were 32.1 µM and 49.5 µM, respectively.

Turning to `CCN1C(=O)N(CC)C2C1NN=c1s/c(=C3\C(=O)N(CC(C)C)c4ccccc43)c(=O)n12` (centres undefined), the TGI in the test with UACC-257 melanoma is over 100 µM; in the test on EKVX NSCLC, over 100 µM; in the test with MCF7 breast it was over 100 µM; in the test on UO-31 renal it was over 100 µM; in the test on NCI/ADR-RES ovarian it was over 30.4 µM; in the test on NCI-H460 lung it was over 100 µM. The figures for the total growth inhibition concentration (TGI) in the test with OVCAR-8 ovarian and in the test on SK-MEL-2 melanoma were over 100 µM and 27.8 µM, respectively. The GI50 in the test with EKVX NSCLC was 1.56 µM; in the test with MCF7 breast, 0.454 µM; in the test with UO-31 renal, 0.869 µM; in the test with NCI/ADR-RES ovarian, 0.479 µM; with NCI-H460 lung, 0.471 µM; with OVCAR-8 ovarian, 1.33 µM. In addition, the GI50 with SK-MEL-2 melanoma is 2.98 µM.

`N#CC1=C(N)OC2=C(COc3ccc(F)cc32)C1c1ccc(Cl)cc1` (centres undefined): the GI50 in the test on UACC-257 melanoma was 41.6 µM; in the test with EKVX NSCLC, 37.3 µM; in the test with MCF7 breast, 30.3 µM; in the test with UO-31 renal, 48.5 µM; in the test on NCI/ADR-RES ovarian, 19.1 µM; with NCI-H460 lung it was 27.8 µM. Besides, the values for the GI50 in the test with OVCAR-8 ovarian and in the test on SK-MEL-2 melanoma were 51.1 µM and 35.1 µM, respectively. Besides, the TGI was over 100 µM with UACC-257 melanoma; over 100 µM in the test with EKVX NSCLC; over 100 µM in the test with MCF7 breast; over 100 µM with UO-31 renal; 48.8 µM with NCI/ADR-RES ovarian; over 100 µM with NCI-H460 lung. The TGI in the test with OVCAR-8 ovarian and in the test on SK-MEL-2 melanoma was over 100 µM each time.
